Data published in ChEMBL document CHEMBL1126511, “Protein damage caused by a synthetic enediyne core” (Bioorg Med Chem Lett, 1993).

Tested on: HCT-116
Assay: In vitro cytotoxicity against human colon carcinoma cell line HCT116
Format: functional, cell-based

SMILES: O=C1C2=CCC[C@@]1(O)C#C/C=C\C#C[C@@H]2O
- IC50: 100 nM
